# Earlier results in PubChem BioAssay AID1259409 (Chemical Carcinogenesis Research Information System (CCRIS), 2018).
# Tested on: rodent chemically induced tumor inhibition, incidence and multiplicity
# Assay: CCRIS tumor inhibitor studies
# Conditions: for outcome: Carcinogen: SUBCUTANEOUS, Dose [Inhibitor]: 1,2-DIMETHYLHYDRAZINE, 540-73-8, Route [Inhibitor]: 0, 20 UG/ML IN DRINKING WATER 14 HR/D AT NIGHT TIME FOR 6 MO (STUDY DURATION: 6 MO), Dose [Carcinogen]: NONE
smiles,measurement,setting,value
COc1ccc2[nH]cc(CCNC(C)=O)c2c1,"tumour outcome (control, treated, inhibition, significance)","Carcinogen: N,N-DIETHYLNITROSAMINE [55-18-5], Dose [Inhibitor]: 400 PPM IN DIET, BEGINNING 1 WK AFTER FINAL CARCINOGEN DOSE, FOR STUDY DURATION (STUDY DURATION: 24 WK), Route [Inhibitor]: ORAL, Species: RAT, Strain/Sex: F344/MALE, Target Tissue: Type of Lesion: LIVER: HEPATOCELLULAR ADENOMA AND CARCINOMA, Dose [Carcinogen]: 100 MG/KG BW, 1/WK FOR 3 WK, Promoter: PHENOBARBITAL [50-06-6]","24/24 (100%), 15/23 (65%), 35%, p<0.002"
same,"tumour outcome (control, treated, inhibition, significance)","Carcinogen: N,N-DIETHYLNITROSAMINE [55-18-5], Dose [Inhibitor]: 400 PPM IN DIET, BEGINNING 1 WK AFTER FINAL CARCINOGEN DOSE, FOR STUDY DURATION (STUDY DURATION: 24 WK), Route [Inhibitor]: ORAL, Species: RAT, Strain/Sex: F344/MALE, Target Tissue: Type of Lesion: LIVER: HEPATOCELLULAR ADENOMA, Dose [Carcinogen]: 100 MG/KG BW, 1/WK FOR 3 WK, Promoter: PHENOBARBITAL [50-06-6]","24/24 (100%), 9/23 (39%), 61%, p<0.001"
same,"tumour outcome (control, treated, inhibition, significance)","Carcinogen: N-METHYL-N-NITROSOUREA [684-93-5], Dose [Inhibitor]: 0, 20 MG/L IN DRINKING WATER 15 HR/D FOR 3 D BEGINNING 2 D PRIOR TO CARCINOGEN DOSE (STUDY DURATION: LIFETIME), Route [Inhibitor]: ORAL, Species: RAT, Strain/Sex: LIO/FEMALE, Target Tissue: Type of Lesion: TUMORS, Dose [Carcinogen]: 50 MG/KG BW ONCE (STUDY DURATION: LIFETIME), Promoter: NONE","12/24 (50%), 8/23 (34.8%), 30.4%, not significant"
same,"tumour outcome (control, treated, inhibition, significance)","Carcinogen: N-METHYL-N-NITROSOUREA [684-93-5], Dose [Inhibitor]: 8.2 MG IN 20 µL OIL CONCENTRATE BY PIPET AT THE BASE OF THE TONGUE 1X/D FOR 20 WK BEGINNING 11 D POST FIRST CARCINOGEN D, Route [Inhibitor]: ORAL, Species: RAT, Strain/Sex: SPRAGUE-DAWLEY/FEMALE, Target Tissue: Type of Lesion: MAMMARY GLAND: TUMOR, Dose [Carcinogen]: 50 MG/KG BW 1X/WK FOR 2 WK (STUDY DURATION: 22 WK), Promoter: NONE","88%, 80%, 9%, not significant"
same,"tumour outcome (control, treated, inhibition, significance)","Carcinogen: N-METHYL-N-NITROSOUREA [684-93-5], Dose [Inhibitor]: 20 UG/ML IN DRINKING WATER 17 HR/D FOR 20 WK BEGINNING 12 D POST FIRST CARCINOGEN DOSE (STUDY DURATION: 22 WK), Route [Inhibitor]: ORAL, Species: RAT, Strain/Sex: SPRAGUE-DAWLEY/FEMALE, Target Tissue: Type of Lesion: MAMMARY GLAND: TUMOR, Dose [Carcinogen]: 50 MG/KG BW 1X/WK FOR 2 WK (STUDY DURATION: 22 WK), Promoter: NONE","88%, 61%, 31%, not significant"
same,"tumour outcome (control, treated, inhibition, significance)","Carcinogen: N-METHYL-N-NITROSOUREA [684-93-5], Dose [Inhibitor]: 20 UG/ML IN DRINKING WATER, 17 HR/D BEGINNING 5 D BEFORE FIRST CARCINOGEN DOSE FOR 27 WK (STUDY DURATION: 27 WK), Route [Inhibitor]: ORAL, Species: RAT, Strain/Sex: SPRAGUE-DAWLEY/FEMALE, Target Tissue: Type of Lesion: MAMMARY GLAND: TUMOR, Dose [Carcinogen]: 50 MG/KG BW TWICE ON POSTNATAL DAYS 51 AND 58","17/18 (94%), 14/19 (73.7%), 22%, not significant"
same,"tumour outcome (control, treated, inhibition, significance)","Carcinogen: N-METHYL-N-NITROSOUREA, 684-93-5, Dose [Inhibitor]: 0, 4 UG/ML IN DRINKING WATER 17 HR/D STARTING BEFORE CARCINOGEN TREATMENT FOR THE DURATION OF THE STUDY (STUDY DURATION:, Route [Inhibitor]: SUBCUTANEOUSLY, Species: RAT, Strain/Sex: SPRAGUE-DAWLEY/FEMALE, Target Tissue: Type of Lesion: MAMMARY GLAND: TUMOR, Dose [Carcinogen]: 50 MG/KG BW 2/WK FOR 1 WK BW 43-54 POSTNATAL DAYS","80%, 65%, 19%, not significant"
same,"tumour outcome (control, treated, inhibition, significance)","Carcinogen: N-METHYL-N-NITROSOUREA, 684-93-5, Dose [Inhibitor]: 0, 20 UG/ML IN DRINKING WATER FOR 17 HR/D FOR THE DURATION OF STUDY (STUDY DURATION: 180 D), Route [Inhibitor]: ORAL, Species: RAT, Strain/Sex: SPRAGUE-DAWLEY/FEMALE, Target Tissue: Type of Lesion: MAMMARY GLAND: TUMOR, Dose [Carcinogen]: 50 MG/G BW ONCE/WK FOR 2 WK BEGINNING 12 D POST INHIBITOR TREATMENT, Promoter: NONE","16/20 (80%), 9/16 (56.3%), 30%, not significant"
same,"tumour outcome (control, treated, inhibition, significance)","Carcinogen: NONE USED, Dose [Inhibitor]: 0, 25 UG/MOUSE/D IN DRINKING WATER FROM DAYS 21-45 OF AGE THEN 50 UG/D FOR DURATION OF STUDY (STUDY DURATION: 12 MO), Route [Inhibitor]: ORAL, Species: MOUSE, Strain/Sex: C3H/JAX/FEMALE, Target Tissue: Type of Lesion: MAMMARY GLAND: ADENOCARCINOMA","10/16 (63%), 9/39 (23%), 63%, p<0.02"
same,outcome,"Species: RAT, Strain/Sex: LIO/FEMALE, Target Tissue: Type of Lesion: 7/21 (33%), 4/21 (19%), 42%, NOT SIGNIFICANT","0.4, 0.2, 50%, not significant"
same,outcome,"Species: RAT, Strain/Sex: LIO/FEMALE, Target Tissue: Type of Lesion: 12/21 (57%), 3/21 (4%), 93%, P<0.01","0.8, 0.1, 88%, p<0.01"
same,outcome,"Species: RAT, Strain/Sex: LIO/FEMALE, Target Tissue: Type of Lesion: 20/21 (95%), 12/21 (57%), 40%, P<0.01","2.8, 1.2, 57%, p<0.01"
